Measurements as given in patent US20190031618A1, “BENZIMIDAZOLE DERIVATIVES USEFUL AS CB-1 INVERSE AGONISTS” (Janssen Pharmaceutica NV, priority 2015, published 2019).

Tested on: DIO mice
Assay: Chronic DIO Mouse: food intake, body weight, plasma insulin
Assay type: in vivo
Conditions: for Mean Body Weight (Std Err) / Plasma Insulin (Std Err): DIO mice; for Plasma Insulin (Std Err): chronic study; for Mean Daily Food Intake: chronic DIO mouse, (Std Err)
Procedure: Male 14-20-week old diet-induced obese mice are ordered from Taconic. Mice were started on a 60% fat diet (D12492, Research Diets, New Brunswick, N.J.) at 6 weeks of age. Mice are single-housed.
DIO mice received vehicle, test compound (@ 1, 3, 10, and 30 mg/kg) daily for 26 days. At the end of the experiment, the mice were euthanized and blood and tissues were collected.
Body weight and food weight (food intake) were monitored daily for days 1-5 and twice weekly thereafter.
Blood glucose was measured from the tail vein with a Lifescan glucometer. Plasma insulin was measured with an ELISA or HTRF kit (Cisbio). Plasma parameters were measured with an Olympus clinical chemistry analyzer.

Compound: O=C(O)c1cccc(CN2CCC(n3c(C4CC4)nc4ccc(C(c5ccc(Cl)cc5)c5ccc(Cl)cc5)cc43)CC2)c1 [Example 148]
- Mean Body Weight (Std Err) (1 mg/kg daily, Day 0): 42.03 (0.80) Grams
- Mean Body Weight (Std Err) (1 mg/kg daily, Day 1): 42.63 (0.79) Grams
- Mean Body Weight (Std Err) (1 mg/kg daily, Day 2): 42.56 (0.86) Grams
- Mean Body Weight (Std Err) (1 mg/kg daily, Day 3): 42.46 (0.91) Grams
- Mean Body Weight (Std Err) (1 mg/kg daily, Day 4): 42.26 (0.87) Grams
- Mean Body Weight (Std Err) (1 mg/kg daily, Day 5): 42.31 (0.81) Grams
- Mean Body Weight (Std Err) (1 mg/kg daily, Day 8): 41.62 (0.79) Grams
- Mean Body Weight (Std Err) (1 mg/kg daily, Day 11): 41.91 (0.77) Grams
- Mean Body Weight (Std Err) (1 mg/kg daily, Day 15): 42.67 (1.02) Grams
- Mean Body Weight (Std Err) (1 mg/kg daily, Day 18): 40.54 (1.23) Grams
- Mean Body Weight (Std Err) (1 mg/kg daily, Day 24): 41.11 (1.30) Grams
- Plasma Insulin (Std Err) (1 mg/kg daily): 5.92 (0.92) ng/mL
- Mean Body Weight (Std Err) (3 mg/kg daily, Day 0): 42.28 (0.49) Grams
- Mean Body Weight (Std Err) (3 mg/kg daily, Day 1): 42.94 (0.45) Grams
- Mean Body Weight (Std Err) (3 mg/kg daily, Day 2): 42.12 (0.43) Grams
- Mean Body Weight (Std Err) (3 mg/kg daily, Day 3): 41.85 (0.47) Grams
- Mean Body Weight (Std Err) (3 mg/kg daily, Day 4): 41.42 (0.44) Grams
- Mean Body Weight (Std Err) (3 mg/kg daily, Day 5): 41.3 (0.36) Grams
- Mean Body Weight (Std Err) (3 mg/kg daily, Day 8): 39.78 (0.29) Grams
- Mean Body Weight (Std Err) (3 mg/kg daily, Day 11): 39.1 (0.41) Grams
- Mean Body Weight (Std Err) (3 mg/kg daily, Day 15): 40.43 (0.40) Grams
- Mean Body Weight (Std Err) (3 mg/kg daily, Day 18): 39.84 (0.53) Grams
- Mean Body Weight (Std Err) (3 mg/kg daily, Day 24): 40.48 (0.48) Grams
- Plasma Insulin (Std Err) (3 mg/kg daily): 4.74 (0.83) ng/mL
- Mean Body Weight (Std Err) (10 mg/kg daily, Day 0): 42.09 (0.85) Grams
- Mean Body Weight (Std Err) (10 mg/kg daily, Day 1): 42.69 (0.74) Grams
- Mean Body Weight (Std Err) (10 mg/kg daily, Day 2): 40.46 (0.66) Grams
- Mean Body Weight (Std Err) (10 mg/kg daily, Day 3): 39.85 (0.68) Grams
- Mean Body Weight (Std Err) (10 mg/kg daily, Day 4): 39.44 (0.70) Grams
- Mean Body Weight (Std Err) (10 mg/kg daily, Day 5): 38.78 (0.70) Grams
- Mean Body Weight (Std Err) (10 mg/kg daily, Day 8): 37.4 (0.67) Grams
- Mean Body Weight (Std Err) (10 mg/kg daily, Day 11): 36.99 (0.78) Grams
- Mean Body Weight (Std Err) (10 mg/kg daily, Day 15): 37.33 (0.84) Grams
- Mean Body Weight (Std Err) (10 mg/kg daily, Day 18): 37.02 (0.88) Grams
- Mean Body Weight (Std Err) (10 mg/kg daily, Day 24): 36.42 (1.25) Grams
- Plasma Insulin (Std Err) (10 mg/kg daily): 2.20 (0.13) ng/mL
- Mean Body Weight (Std Err) (30 mg/kg daily, Day 0): 42.46 (0.58) Grams
- Mean Body Weight (Std Err) (30 mg/kg daily, Day 1): 43.13 (0.69) Grams
- Mean Body Weight (Std Err) (30 mg/kg daily, Day 2): 39.64 (0.68) Grams
- Mean Body Weight (Std Err) (30 mg/kg daily, Day 3): 38.53 (0.66) Grams
- Mean Body Weight (Std Err) (30 mg/kg daily, Day 4): 37.46 (0.75) Grams
- Mean Body Weight (Std Err) (30 mg/kg daily, Day 5): 36.67 (0.75) Grams
- Mean Body Weight (Std Err) (30 mg/kg daily, Day 8): 34.95 (0.78) Grams
- Mean Body Weight (Std Err) (30 mg/kg daily, Day 11): 33.79 (0.87) Grams
- Mean Body Weight (Std Err) (30 mg/kg daily, Day 15): 34.19 (0.64) Grams
- Mean Body Weight (Std Err) (30 mg/kg daily, Day 18): 32.47 (0.92) Grams
- Mean Body Weight (Std Err) (30 mg/kg daily, Day 24): 32.86 (0.91) Grams
- Plasma Insulin (Std Err) (30 mg/kg daily): 2.85 (0.27) ng/mL
- Mean Daily Food Intake (1 mg/kg daily, Day 2): 2.3 (0.1) Grams
- Mean Daily Food Intake (1 mg/kg daily, Day 3): 2.3 (0.1) Grams
- Mean Daily Food Intake (1 mg/kg daily, Day 4): 2.2 (0.1) Grams
- Mean Daily Food Intake (1 mg/kg daily, Day 5): 2.4 (0.1) Grams
- Mean Daily Food Intake (1 mg/kg daily, Day 8): 2.1 (0.1) Grams
- Mean Daily Food Intake (1 mg/kg daily, Day 11): 2.3 (0.1) Grams
- Mean Daily Food Intake (1 mg/kg daily, Day 15): 2.4 (0.1) Grams
- Mean Daily Food Intake (1 mg/kg daily, Day 18): 1.6 (0.3) Grams
- Mean Daily Food Intake (1 mg/kg daily, Day 24): 2.1 (0.2) Grams
- Mean Daily Food Intake (3 mg/kg daily, Day 2): 2.0 (0.2) Grams
- Mean Daily Food Intake (3 mg/kg daily, Day 3): 2.0 (0.1) Grams
- Mean Daily Food Intake (3 mg/kg daily, Day 4): 1.9 (0.2) Grams
- Mean Daily Food Intake (3 mg/kg daily, Day 5): 1.8 (0.2) Grams
- Mean Daily Food Intake (3 mg/kg daily, Day 8): 1.7 (0.1) Grams
- Mean Daily Food Intake (3 mg/kg daily, Day 11): 1.8 (0.1) Grams
- Mean Daily Food Intake (3 mg/kg daily, Day 15): 2.5 (0.1) Grams
- Mean Daily Food Intake (3 mg/kg daily, Day 18): 2.2 (0.1) Grams
- Mean Daily Food Intake (3 mg/kg daily, Day 24): 2.2 (0.1) Grams
- Mean Daily Food Intake (10 mg/kg daily, Day 2): 0.5 (0.1) Grams
- Mean Daily Food Intake (10 mg/kg daily, Day 3): 0.9 (0.1) Grams
